Measurements published in patent US6737383B1, “Herbicidal oxadiazolidines” (priority 1999, dated 2004).

Key:
rape = assay: Test B pre/postemergence rape; format: in vivo, Brassica napus
Procedure, shortened: (§1)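 Herbicidal effect was estimated by eye on a ten-point control scale after plants spent twelve to sixteen days in a greenhouse following soil or foliar treatment. Foliar sprays targeted plants at one to four leaves; all doses were formulated in a non-phytotoxic solvent with surfactant.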

morningglory = assay: Test B pre/postemergence morningglory; format: in vivo, Ipomoea hederacea
Procedure, shortened: as §1

wheat = assay: Test B pre/postemergence wheat; format: in vivo, Triticum aestivum
Procedure, shortened: as §1

duck salad = assay: Test B flood test duck salad; format: in vivo, Heteranthera limosa; conditions: for Plant response rating, Ducksalad (0 to 10 scale, 0 is no effect, 10 is complete control): Rate 62 g/ha; for Plant response rating, Ducksalad (0 to 10 scale, 0 is no effect, 10 is complete control) / Ducksalad plant response rating (0 to 10 scale, 0 is no effect, 10 is complete control): visual evaluation after twelve to sixteen days; for Ducksalad plant response rating (0 to 10 scale, 0 is no effect, 10 is complete control): Rate 125 g/ha, under heading Pre-emergence
Procedure, shortened: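 Flood test on plants grown to the 2-leaf stage; treated plants kept in greenhouse twelve to sixteen days, then visually rated against controls on a 0 (no effect) to 10 (complete control) scale.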

[1] = Postemergence, Rate 125 g/ha, scale 0 to 10, 0 is no effect, 10 is complete control
[2] = Postemergence, Rate 250 g/ha, scale 0 to 10, 0 is no effect, 10 is complete control
[3] = Preemergence, Rate 62 g/ha, scale 0 to 10 (0 no effect, 10 complete control)
[4] = Preemergence, Rate 250 g/ha, scale of 0 to 10 where 0 is no effect and 10 is complete control
[5] = Preemergence, Rate 500 g/ha, scale of 0 to 10 where 0 is no effect and 10 is complete control
[6] = Rate 62 g/ha, Postemergence, scale of 0 to 10 where 0 is no effect and 10 is complete control
[7] = Rate 500 g/ha, Postemergence, scale 0 to 10, 0 no effect, 10 complete control
[8] = flood test species, Pre-emergence
[9] = Rate 250 g/ha, Pre-emergence, flood-test species, scale 0 to 10, 0 is no effect, 10 is complete control
[10] = Rate 500 g/ha, Pre-emergence, flood test species, scale 0 to 10 (0 no effect, 10 complete control)
[11] = Postemergence, Rate 250 g/ha, scale 0 to 10
[12] = Postemergence, Rate 500 g/ha, scale of 0 to 10 where 0 is no effect and 10 is complete control
[13] = Preemergence, Rate 62 g/ha, scale of 0 to 10 where 0 is no effect and 10 is complete control
[14] = Preemergence, Rate 125 g/ha, scale of 0 to 10 where 0 is no effect and 10 is complete control
[15] = Preemergence, Rate 250 g/ha, scale 0 to 10, 0 is no effect, 10 is complete control
[16] = Preemergence, Rate 500 g/ha, scale 0 to 10, 0 is no effect, 10 is complete control
[17] = Rate 62 g/ha, Postemergence, scale 0 to 10 (0 no effect, 10 complete control)
[18] = Rate 125 g/ha, Postemergence, scale 0 to 10, 0 is no effect, 10 is complete control
[19] = Rate 250 g/ha, Pre-emergence (flood test species), scale 0 to 10, 0 is no effect, 10 is complete control
[20] = Postemergence, Rate 31 g/ha, visual rating, scale 0 to 10 (0 no effect, 10 complete control)

CC(C)N(C(=O)n1oc(=O)n(CCl)c1=O)c1ccc(F)cc1 [Compound 376]
0: Plant response rating, Rape (rape; [1]) | Plant response rating, Rape (rape; [2]) | Plant response rating, Rape (rape; [3]) | Rape plant response rating (0 to 10 scale) (rape; Preemergence, Rate 125 g/ha) | Rape plant response rating (rape; [4]) | Rape plant response rating (rape; [5]) | Rape plant response rating (rape; [6]) | Plant response rating, Rape (rape; [7]) | Plant response rating, Morningglory (morningglory; [1]) | Plant response rating, Morningglory (morningglory; [2]) | Plant response rating, Morningglory (morningglory; [3]) | Morningglory plant response rating (0 to 10 scale) (morningglory; Preemergence, Rate 125 g/ha) | Morningglory plant response rating (morningglory; [4]) | Morningglory plant response rating (morningglory; [5]) | Morningglory plant response rating (morningglory; [6]) | Plant response rating, Morningglory (morningglory; [7]) | Plant response rating, Wheat (wheat; [1]) | Plant response rating, Wheat (wheat; [2]) | Plant response rating, Wheat (wheat; [3]) | Wheat plant response rating (0 to 10 scale) (wheat; Preemergence, Rate 125 g/ha) | Wheat plant response rating (wheat; [4]) | Wheat plant response rating (wheat; [5]) | Wheat plant response rating (wheat; [6]) | Plant response rating, Wheat (wheat; [7]) | Plant response rating, Ducksalad (0 to 10 scale, 0 is no effect, 10 is complete control) (duck salad; [8]) | Ducksalad plant response rating (0 to 10 scale, 0 is no effect, 10 is complete control) (duck salad; flood test species) | Ducksalad plant response rating (duck salad; [9]) | Ducksalad plant response rating (duck salad; [10])

Cc1nnsc1Cn1c(=O)on(C(=O)N(c2ccccc2)C(C)C)c1=O [Compound 378]
10: Plant response rating, Morningglory (morningglory; [2]) | Plant response rating, Morningglory (morningglory; [7])
7: Plant response rating, Morningglory (morningglory; [1])
0: Plant response rating, Rape (rape; [1]) | Plant response rating, Rape (rape; [2]) | Plant response rating, Rape (rape; [3]) | Rape plant response rating (0 to 10 scale) (rape; Preemergence, Rate 125 g/ha) | Rape plant response rating (rape; [4]) | Rape plant response rating (rape; [5]) | Rape plant response rating (rape; [6]) | Plant response rating, Morningglory (morningglory; [3]) | Morningglory plant response rating (0 to 10 scale) (morningglory; Preemergence, Rate 125 g/ha) | Morningglory plant response rating (morningglory; [4]) | Morningglory plant response rating (morningglory; [5]) | Plant response rating, Wheat (wheat; [1]) | Plant response rating, Wheat (wheat; [2]) | Plant response rating, Wheat (wheat; [3]) | Wheat plant response rating (0 to 10 scale) (wheat; Preemergence, Rate 125 g/ha) | Wheat plant response rating (wheat; [4]) | Wheat plant response rating (wheat; [5]) | Wheat plant response rating (wheat; [6]) | Plant response rating, Wheat (wheat; [7]) | Plant response rating, Ducksalad (0 to 10 scale, 0 is no effect, 10 is complete control) (duck salad; [8]) | Ducksalad plant response rating (0 to 10 scale, 0 is no effect, 10 is complete control) (duck salad; flood test species) | Ducksalad plant response rating (duck salad; [9]) | Ducksalad plant response rating (duck salad; [10])
5: Morningglory plant response rating (morningglory; [6])
3: Plant response rating, Rape (rape; [7])

Cc1nnsc1Cn1c(=O)on(C(=O)N(c2ccc(F)cc2)C(C)C)c1=O [Compound 380]
10: Plant response rating, Morningglory (morningglory; [7])
5: Plant response rating, Morningglory (morningglory; [1]) | Plant response rating, Morningglory (morningglory; [2]) | Morningglory plant response rating (morningglory; [6])
0: Plant response rating, Rape (rape; [1]) | Plant response rating, Rape (rape; [2]) | Plant response rating, Rape (rape; [3]) | Rape plant response rating (0 to 10 scale) (rape; Preemergence, Rate 125 g/ha) | Rape plant response rating (rape; [4]) | Rape plant response rating (rape; [5]) | Rape plant response rating (rape; [6]) | Plant response rating, Rape (rape; [7]) | Plant response rating, Morningglory (morningglory; [3]) | Morningglory plant response rating (0 to 10 scale) (morningglory; Preemergence, Rate 125 g/ha) | Morningglory plant response rating (morningglory; [4]) | Morningglory plant response rating (morningglory; [5]) | Plant response rating, Wheat (wheat; [1]) | Plant response rating, Wheat (wheat; [2]) | Plant response rating, Wheat (wheat; [3]) | Wheat plant response rating (0 to 10 scale) (wheat; Preemergence, Rate 125 g/ha) | Wheat plant response rating (wheat; [4]) | Wheat plant response rating (wheat; [5]) | Wheat plant response rating (wheat; [6]) | Plant response rating, Wheat (wheat; [7]) | Plant response rating, Ducksalad (0 to 10 scale, 0 is no effect, 10 is complete control) (duck salad; [8]) | Ducksalad plant response rating (0 to 10 scale, 0 is no effect, 10 is complete control) (duck salad; flood test species) | Ducksalad plant response rating (duck salad; [9]) | Ducksalad plant response rating (duck salad; [10])

CC(C)N(C(=O)n1oc(=O)n(N2C(C)CCCC2C)c1=O)c1ccc(F)cc1 (stereo not shown) [Compound 382]
0: Plant response rating, Rape (rape; [1]) | Plant response rating, Rape (rape; [2]) | Plant response rating, Rape (rape; [3]) | Rape plant response rating (0 to 10 scale) (rape; Preemergence, Rate 125 g/ha) | Rape plant response rating (rape; [4]) | Rape plant response rating (rape; [5]) | Rape plant response rating (rape; [6]) | Plant response rating, Rape (rape; [7]) | Plant response rating, Morningglory (morningglory; [1]) | Plant response rating, Morningglory (morningglory; [2]) | Plant response rating, Morningglory (morningglory; [3]) | Morningglory plant response rating (0 to 10 scale) (morningglory; Preemergence, Rate 125 g/ha) | Morningglory plant response rating (morningglory; [4]) | Morningglory plant response rating (morningglory; [5]) | Morningglory plant response rating (morningglory; [6]) | Plant response rating, Morningglory (morningglory; [7]) | Plant response rating, Wheat (wheat; [1]) | Plant response rating, Wheat (wheat; [2]) | Plant response rating, Wheat (wheat; [3]) | Wheat plant response rating (0 to 10 scale) (wheat; Preemergence, Rate 125 g/ha) | Wheat plant response rating (wheat; [4]) | Wheat plant response rating (wheat; [5]) | Wheat plant response rating (wheat; [6]) | Plant response rating, Wheat (wheat; [7]) | Plant response rating, Ducksalad (0 to 10 scale, 0 is no effect, 10 is complete control) (duck salad; [8]) | Ducksalad plant response rating (0 to 10 scale, 0 is no effect, 10 is complete control) (duck salad; flood test species) | Ducksalad plant response rating (duck salad; [9]) | Ducksalad plant response rating (duck salad; [10])

CC(C)N(C(=O)n1oc(=O)n(C(C)Cl)c1=O)c1ccccc1 (stereo not shown) [Compound 438]
0: Rape plant response rating (rape; [11]) | Rape plant response rating (rape; [12]) | Plant response rating, Rape (rape; [13]) | Plant response rating, Rape (rape; [14]) | Rape plant response rating (rape; [15]) | Rape plant response rating (rape; [17]) | Rape plant response rating (rape; [18]) | Plant response rating, Morningglory (morningglory; [13]) | Plant response rating, Morningglory (morningglory; [14]) | Morningglory plant response rating (morningglory; [15]) | Wheat plant response rating (wheat; [11]) | Wheat plant response rating (wheat; [12]) | Plant response rating, Wheat (wheat; [13]) | Plant response rating, Wheat (wheat; [14]) | Wheat plant response rating (wheat; [15]) | Wheat plant response rating (wheat; [16]) | Wheat plant response rating (wheat; [17]) | Wheat plant response rating (wheat; [18]) | Plant response rating, Ducksalad (0 to 10 scale, 0 is no effect, 10 is complete control) (duck salad; [8]) | Ducksalad plant response rating (0 to 10 scale, 0 is no effect, 10 is complete control) (duck salad; flood test species) | Ducksalad plant response rating (duck salad; [19]) | Ducksalad plant response rating (duck salad; [10])
2: Rape plant response rating (rape; [16]) | Morningglory plant response rating (morningglory; [16])
10: Morningglory plant response rating (morningglory; [12])
8: Morningglory plant response rating (morningglory; [18])
4: Morningglory plant response rating (morningglory; [17])
9: Morningglory plant response rating (morningglory; [11])

Cc1nc(C)c(C(C)n2c(=O)on(C(=O)N(c3ccccc3)C(C)C)c2=O)s1 (stereo not shown) [Compound 442]
0: Rape plant response rating (rape; [20]) | Rape plant response rating (rape; [11]) | Plant response rating, Rape (rape; [13]) | Plant response rating, Rape (rape; [14]) | Rape plant response rating (rape; [15]) | Rape plant response rating (rape; [17]) | Rape plant response rating (rape; [18]) | Plant response rating, Morningglory (morningglory; [13]) | Plant response rating, Morningglory (morningglory; [14]) | Morningglory plant response rating (morningglory; [15]) | Wheat plant response rating (wheat; [20]) | Wheat plant response rating (wheat; [11]) | Plant response rating, Wheat (wheat; [13]) | Plant response rating, Wheat (wheat; [14]) | Wheat plant response rating (wheat; [15]) | Wheat plant response rating (wheat; [17]) | Wheat plant response rating (wheat; [18]) | Ducksalad plant response rating (duck salad; Rate 31 g/ha, Pre-emergence section (flood test species), scale 0 to 10) | Plant response rating, Ducksalad (0 to 10 scale, 0 is no effect, 10 is complete control) (duck salad; [8]) | Ducksalad plant response rating (0 to 10 scale, 0 is no effect, 10 is complete control) (duck salad; flood test species) | Ducksalad plant response rating (duck salad; [19])
4: Morningglory plant response rating (morningglory; [17]) | Morningglory plant response rating (morningglory; [18])
7: Morningglory plant response rating (morningglory; [11])
1: Morningglory plant response rating (morningglory; [20])

CC(C)N(C(=O)n1oc(=O)n(CC2=NOCC2)c1=O)c1ccc(F)cc1 [Compound 466]
3: Rape plant response rating (rape; [16])
2: Morningglory plant response rating (morningglory; [11]) | Morningglory plant response rating (morningglory; [18])
1: Wheat plant response rating (wheat; [16])
0: Rape plant response rating (rape; [11]) | Plant response rating, Rape (rape; [13]) | Plant response rating, Rape (rape; [14]) | Rape plant response rating (rape; [15]) | Rape plant response rating (rape; [17]) | Rape plant response rating (rape; [18]) | Plant response rating, Morningglory (morningglory; [13]) | Plant response rating, Morningglory (morningglory; [14]) | Morningglory plant response rating (morningglory; [15]) | Morningglory plant response rating (morningglory; [16]) | Morningglory plant response rating (morningglory; [17]) | Wheat plant response rating (wheat; [11]) | Plant response rating, Wheat (wheat; [13]) | Plant response rating, Wheat (wheat; [14]) | Wheat plant response rating (wheat; [15]) | Wheat plant response rating (wheat; [17]) | Wheat plant response rating (wheat; [18]) | Plant response rating, Ducksalad (0 to 10 scale, 0 is no effect, 10 is complete control) (duck salad; [8]) | Ducksalad plant response rating (0 to 10 scale, 0 is no effect, 10 is complete control) (duck salad; flood test species) | Ducksalad plant response rating (duck salad; [19]) | Ducksalad plant response rating (duck salad; [10])
